Experimental data taken from ChEMBL document CHEMBL1201862, “PubChem BioAssay data set” (2004).
Calls of active or inactive are those of the source.

Columns and labels:
[1] = target: Neurotensin receptor type 1 (Homo sapiens, UniProt P30989); assay type: functional;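 further: Image-based confirmatory dose-response assay measuring agonist activity at NTR1; NTR1-expressing U2OS osteosarcoma cells imaged for beta-arrestin GFP spot formation; agonist potency where compounds increase beta-arrestin recruitment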
[2] = target: Cytochrome P450 2C19 (Homo sapiens, UniProt P33261); assay: Cytochrome panel assay with activity outcomes. Panel member name: p450-cyp2c19 Compounds with AC50 equal or less than 10 uM are considered active; assay type: functional; conditions: read-out: AC50
[3] = target: T1, Cytochrome P450 1A2 (Homo sapiens, UniProt P05177);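 further: PubChem cytochrome P450 panel assay, CYP1A2 panel member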
T1 sequence (P05177 whole entry): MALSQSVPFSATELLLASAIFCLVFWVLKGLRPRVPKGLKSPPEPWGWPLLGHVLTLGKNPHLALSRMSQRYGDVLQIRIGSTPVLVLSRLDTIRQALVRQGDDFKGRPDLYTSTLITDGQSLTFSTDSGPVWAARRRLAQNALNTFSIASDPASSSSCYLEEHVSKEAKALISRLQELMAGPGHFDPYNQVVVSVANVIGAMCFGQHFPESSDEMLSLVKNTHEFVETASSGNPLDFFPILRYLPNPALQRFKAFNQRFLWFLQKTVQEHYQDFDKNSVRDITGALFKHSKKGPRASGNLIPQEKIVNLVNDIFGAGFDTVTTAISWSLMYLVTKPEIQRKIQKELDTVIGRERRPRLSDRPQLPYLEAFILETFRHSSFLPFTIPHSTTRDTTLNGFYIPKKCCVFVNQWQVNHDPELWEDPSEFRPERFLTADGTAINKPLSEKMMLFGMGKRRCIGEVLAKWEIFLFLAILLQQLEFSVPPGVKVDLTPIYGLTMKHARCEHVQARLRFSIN

[4] = target: Cytochrome P450 2C9 (Homo sapiens, UniProt P11712)
[5] = Trypanosoma cruzi growth suppression in host cells – NIH3T3 host cells, beta-gal luminescence, confirmation (AID 2044); assay type: functional, cell-based;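 further: intracellular parasites grown in NIH/3T3 mouse fibroblasts as host cells; luminescent beta-galactosidase reporter signal from transgenic T. cruzi replicating inside host cells; inhibitors lower the luminescence signal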
[6] = target: T2, Mucolipin-3 (Homo sapiens, UniProt Q8TDD5); assay: Dose response cell-based high-throughput screening assay for agonists of the transient receptor potential channel ML3 (TRPML3). [Related pubchem assays: 1526, 1424, 1448 ]; assay type: functional
T2 sequence (Q8TDD5 whole entry): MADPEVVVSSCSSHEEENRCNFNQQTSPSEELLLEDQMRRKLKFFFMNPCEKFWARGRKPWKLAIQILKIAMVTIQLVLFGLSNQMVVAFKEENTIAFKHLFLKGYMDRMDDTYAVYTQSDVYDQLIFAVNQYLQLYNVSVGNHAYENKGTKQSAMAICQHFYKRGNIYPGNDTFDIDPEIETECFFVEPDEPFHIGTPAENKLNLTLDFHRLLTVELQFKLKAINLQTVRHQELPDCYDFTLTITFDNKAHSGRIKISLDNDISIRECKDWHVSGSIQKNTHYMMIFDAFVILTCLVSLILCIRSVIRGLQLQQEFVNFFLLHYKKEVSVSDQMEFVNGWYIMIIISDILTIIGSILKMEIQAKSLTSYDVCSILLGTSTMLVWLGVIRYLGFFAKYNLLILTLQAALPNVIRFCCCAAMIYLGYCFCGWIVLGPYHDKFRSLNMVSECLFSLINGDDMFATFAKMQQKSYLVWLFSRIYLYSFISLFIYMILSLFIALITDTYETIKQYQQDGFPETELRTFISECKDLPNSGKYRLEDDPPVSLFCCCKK

[7] = NIH3T3 cell viability loss – ATP luminescence, mouse fibroblasts, counter-screen, dose response (AID 2010); assay type: functional, cell-based;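 further: cells exposed to compound for about 90 hours before reading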
[8] = target: Ion channel NompC (Danio rerio, UniProt Q7T1G6); assay: Fluorescence counterscreen assay for TRPML3 agonists: dose response cell-based high-throughput screening assay to identify agonists of the transient receptor potential channel N1 (TRPN1). [Related pubchem assays: 1526, 1424, 1448 ]; assay type: functional
[9] = target: DNA dC->dU-editing enzyme APOBEC-3A (Homo sapiens, UniProt P31941); assay: Dose Response confirmation of small molecule APOBEC3A DNA Deaminase Inhibitors via a fluorescence-based single-stranded DNA deaminase assay. [Related pubchem assays (depositor defined):AID493011, AID493024]; assay type: functional
[10] = target: DNA dC->dU-editing enzyme APOBEC-3G (Homo sapiens, UniProt Q9HC16); assay type: functional;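 further: Dose-response counterscreen measuring inhibition of APOBEC3G DNA deaminase activity, run while confirming APOBEC3A inhibitors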
[11] = target: T3, Luciferin 4-monooxygenase (Photinus pyralis, UniProt P08659); assay: inhibition of purified Photinus pyralis luciferase – biochemical, luminescence, dose response (AID 1891)
[12] = Luminescence Cell-Based Dose Confirmation HTS to Identify Inhibitors of Platelet Dense Granule Release. [Related pubchem assays: 1663 (Primary HTS), 1678 (Summary of Project)]; assay type: functional
[13] = target: T4, Short transient receptor potential channel 4 (Mus musculus, UniProt Q9QUQ5); assay: potentiation of DAMGO-evoked TRPC4 calcium signal – cell-based, HEK293 TRPC4/mu-opioid, Fluo-4 calcium, EC20 DAMGO, dose response (AID 434941); assay type: functional
T4 sequence (Q9QUQ5 whole entry): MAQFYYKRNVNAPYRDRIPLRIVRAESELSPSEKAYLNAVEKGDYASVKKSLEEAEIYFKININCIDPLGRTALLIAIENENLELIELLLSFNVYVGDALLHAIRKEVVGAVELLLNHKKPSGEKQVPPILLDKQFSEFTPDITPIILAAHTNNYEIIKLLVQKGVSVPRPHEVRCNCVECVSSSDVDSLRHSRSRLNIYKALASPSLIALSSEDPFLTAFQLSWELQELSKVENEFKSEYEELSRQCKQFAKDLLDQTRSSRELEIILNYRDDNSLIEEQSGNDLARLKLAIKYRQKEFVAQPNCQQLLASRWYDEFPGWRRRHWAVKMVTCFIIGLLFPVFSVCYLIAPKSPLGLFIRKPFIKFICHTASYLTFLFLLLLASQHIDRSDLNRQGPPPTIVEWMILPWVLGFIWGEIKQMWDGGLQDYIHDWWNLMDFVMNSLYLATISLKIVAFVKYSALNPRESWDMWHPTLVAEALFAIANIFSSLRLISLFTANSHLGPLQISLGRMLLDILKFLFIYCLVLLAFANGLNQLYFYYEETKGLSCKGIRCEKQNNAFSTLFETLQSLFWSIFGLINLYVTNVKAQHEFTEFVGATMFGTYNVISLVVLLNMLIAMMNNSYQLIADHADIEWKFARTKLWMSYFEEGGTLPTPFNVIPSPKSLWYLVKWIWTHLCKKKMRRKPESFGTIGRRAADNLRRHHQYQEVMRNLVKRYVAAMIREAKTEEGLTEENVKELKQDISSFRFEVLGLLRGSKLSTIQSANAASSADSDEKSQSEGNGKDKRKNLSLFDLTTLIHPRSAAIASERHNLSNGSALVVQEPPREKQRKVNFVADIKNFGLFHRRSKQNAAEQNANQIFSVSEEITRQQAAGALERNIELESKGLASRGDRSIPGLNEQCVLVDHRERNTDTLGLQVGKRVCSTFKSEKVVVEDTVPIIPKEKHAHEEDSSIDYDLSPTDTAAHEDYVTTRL

[14] = target: T3, Luciferin 4-monooxygenase; assay: Counter Screen for Luciferase-based Assay Positives. [Related pubchem assays: 620, 618, 411 ]
[15] = test system: HT-1080; assay: HT1080 cell viability loss – fluorescence readout (AID 620); assay type: functional, cell-based; conditions: Homo sapiens
[16] = A Cell Based Secondary Assay To Explore Cytotoxicity of Compounds that Sensitize Mycobacterium Tuberculosis to Beta-Lactam Antibiotics.; assay type: functional
[17] = target: Alkaline phosphatase, placental type (Homo sapiens, UniProt P05187); assay: human placental alkaline phosphatase inhibition – biochemical, luminescence, confirmation (AID 1512); assay type: functional
[18] = target: NACHT, LRR and PYD domains-containing protein 3 (Homo sapiens, UniProt Q96P20); assay: NALP3 inhibitors in yeast, dose response, luminescent (AID 488799); assay type: functional
[19] = target: Eukaryotic translation initiation factor 4H (Homo sapiens, UniProt Q15056); assay: inhibitors of translation initiation factor eIF4H – SAR follow-up (AID 435011); assay type: functional
[20] = target: Polyadenylate-binding protein 1 (Homo sapiens, UniProt P11940); assay: PABP inhibition in translation initiation, SAR follow-up (AID 435018); assay type: functional
[21] = test system: Streptococcus sp. 'group A'; assay: Streptococcus pyogenes SK(-)GAS viability under kanamycin – luminescence, BacTiterGlo, confirmation, counter-screen for streptokinase expression inhibitor project, dose response (AID 1900); assay type: functional, organism-based
[22] = target: T5, Streptokinase A (Streptococcus pyogenes serotype M1, UniProt P10520); assay: viability-normalized secreted streptokinase activity reduction – plasminogen activation absorbance, OD405, dose response (AID 1914); assay type: functional, Streptococcus pyogenes M1 GAS;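 further: secreted streptokinase activity via plasminogen activation per viability signal from cell pellet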
T5 sequence (P10520 whole entry): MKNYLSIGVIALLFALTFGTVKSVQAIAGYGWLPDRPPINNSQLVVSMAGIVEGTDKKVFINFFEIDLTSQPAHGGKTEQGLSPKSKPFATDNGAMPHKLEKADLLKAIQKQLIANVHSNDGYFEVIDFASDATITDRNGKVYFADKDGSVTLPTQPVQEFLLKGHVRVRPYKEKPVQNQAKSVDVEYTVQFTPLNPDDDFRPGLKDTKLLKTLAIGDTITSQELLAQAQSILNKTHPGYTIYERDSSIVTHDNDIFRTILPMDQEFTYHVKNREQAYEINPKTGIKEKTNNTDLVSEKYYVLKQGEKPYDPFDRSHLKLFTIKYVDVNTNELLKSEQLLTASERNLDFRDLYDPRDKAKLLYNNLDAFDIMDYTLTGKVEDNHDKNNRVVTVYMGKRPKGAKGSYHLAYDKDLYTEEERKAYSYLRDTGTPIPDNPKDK

[23] = test system: Streptococcus; assay: GAS UMAA2166 growth inhibition – luminescence, BacTiterGlo, counter-screen for streptokinase expression inhibitor project, dose response (AID 1915); assay type: functional, organism-based;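 further: potency for reduction of bacterial viability or growth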
[24] = THP-1 cell cytotoxicity, dose response, cytotoxicity control for non-replicating M. tuberculosis project (AID 489025); assay type: functional
[25] = HepG2 cell cytotoxicity, dose response, cytotoxicity control for non-replicating M. tuberculosis project (AID 489018); assay type: functional; conditions: Mycobacterium tuberculosis
[26] = Vero E6 cell cytotoxicity, dose response, cytotoxicity control for non-replicating M. tuberculosis project, secondary assay (AID 492998); assay type: functional, VeroE6; conditions: Vero C1008
[27] = cells; assay type: functional
[28] = test system: INS1; assay: INS-1E survival protection against cytokine death – cell-based, luminescence, retest, dose response (AID 449756); assay type: functional; conditions: Rattus norvegicus;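 further: cell death triggered by IL-1 beta plus TNF-alpha plus IFN-gamma mixture; protective hits raise ATP signal compared with cytokine alone wells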
[29] = microbe, parasite or virus in culture; assay type: functional; conditions: Mycobacterium tuberculosis
[30] = target: Nonstructural protein 1 (Influenza A virus, UniProt Q194T2); assay type: functional, Influenza A virus (A/California/07/2009(H1N1))
[31] = target: T4, Short transient receptor potential channel 4; assay: calcium entry via TRPC4 opening agents – cell-based, HEK293 TRPC4/mu-opioid, Fluo-4 calcium, dose response (AID 434937); assay type: functional
[32] = test system: Vero; assay: cells; assay type: functional; conditions: Chlorocebus sabaeus

T3 sequence (P08659 whole entry): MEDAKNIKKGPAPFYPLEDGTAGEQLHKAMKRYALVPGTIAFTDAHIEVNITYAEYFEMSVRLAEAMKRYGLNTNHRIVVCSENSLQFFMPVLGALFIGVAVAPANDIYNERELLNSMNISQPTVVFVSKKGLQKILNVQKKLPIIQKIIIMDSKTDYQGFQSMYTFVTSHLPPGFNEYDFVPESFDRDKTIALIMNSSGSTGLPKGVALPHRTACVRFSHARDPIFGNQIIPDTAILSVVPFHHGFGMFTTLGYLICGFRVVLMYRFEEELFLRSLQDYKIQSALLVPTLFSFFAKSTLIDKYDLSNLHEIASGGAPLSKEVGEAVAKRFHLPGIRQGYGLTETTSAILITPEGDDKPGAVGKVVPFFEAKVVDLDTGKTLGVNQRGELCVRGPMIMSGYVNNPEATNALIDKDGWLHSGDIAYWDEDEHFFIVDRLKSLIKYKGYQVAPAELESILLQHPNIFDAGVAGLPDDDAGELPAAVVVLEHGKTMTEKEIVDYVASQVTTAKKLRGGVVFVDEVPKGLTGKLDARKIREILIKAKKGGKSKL
Chain of Polyadenylate-binding protein 1 (P11940 whole entry): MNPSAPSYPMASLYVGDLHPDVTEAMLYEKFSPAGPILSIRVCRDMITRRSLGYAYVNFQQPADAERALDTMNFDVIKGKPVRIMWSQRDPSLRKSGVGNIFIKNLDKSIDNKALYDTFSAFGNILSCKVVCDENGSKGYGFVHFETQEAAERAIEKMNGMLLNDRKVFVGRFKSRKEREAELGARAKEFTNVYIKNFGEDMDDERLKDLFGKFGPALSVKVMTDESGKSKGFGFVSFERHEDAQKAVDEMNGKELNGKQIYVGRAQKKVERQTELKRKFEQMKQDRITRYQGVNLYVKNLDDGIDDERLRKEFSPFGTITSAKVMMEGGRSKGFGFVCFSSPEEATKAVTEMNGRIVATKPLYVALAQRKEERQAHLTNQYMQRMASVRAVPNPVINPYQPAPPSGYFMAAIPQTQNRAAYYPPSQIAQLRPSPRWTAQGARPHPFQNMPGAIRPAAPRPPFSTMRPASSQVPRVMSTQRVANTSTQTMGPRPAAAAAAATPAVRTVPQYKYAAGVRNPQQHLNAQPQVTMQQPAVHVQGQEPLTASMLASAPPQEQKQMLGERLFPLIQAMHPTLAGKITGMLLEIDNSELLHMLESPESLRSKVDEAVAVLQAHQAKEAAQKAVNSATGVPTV
Chain of NACHT, LRR and PYD domains-containing protein 3 (Q96P20 whole entry, the tested form may be a part): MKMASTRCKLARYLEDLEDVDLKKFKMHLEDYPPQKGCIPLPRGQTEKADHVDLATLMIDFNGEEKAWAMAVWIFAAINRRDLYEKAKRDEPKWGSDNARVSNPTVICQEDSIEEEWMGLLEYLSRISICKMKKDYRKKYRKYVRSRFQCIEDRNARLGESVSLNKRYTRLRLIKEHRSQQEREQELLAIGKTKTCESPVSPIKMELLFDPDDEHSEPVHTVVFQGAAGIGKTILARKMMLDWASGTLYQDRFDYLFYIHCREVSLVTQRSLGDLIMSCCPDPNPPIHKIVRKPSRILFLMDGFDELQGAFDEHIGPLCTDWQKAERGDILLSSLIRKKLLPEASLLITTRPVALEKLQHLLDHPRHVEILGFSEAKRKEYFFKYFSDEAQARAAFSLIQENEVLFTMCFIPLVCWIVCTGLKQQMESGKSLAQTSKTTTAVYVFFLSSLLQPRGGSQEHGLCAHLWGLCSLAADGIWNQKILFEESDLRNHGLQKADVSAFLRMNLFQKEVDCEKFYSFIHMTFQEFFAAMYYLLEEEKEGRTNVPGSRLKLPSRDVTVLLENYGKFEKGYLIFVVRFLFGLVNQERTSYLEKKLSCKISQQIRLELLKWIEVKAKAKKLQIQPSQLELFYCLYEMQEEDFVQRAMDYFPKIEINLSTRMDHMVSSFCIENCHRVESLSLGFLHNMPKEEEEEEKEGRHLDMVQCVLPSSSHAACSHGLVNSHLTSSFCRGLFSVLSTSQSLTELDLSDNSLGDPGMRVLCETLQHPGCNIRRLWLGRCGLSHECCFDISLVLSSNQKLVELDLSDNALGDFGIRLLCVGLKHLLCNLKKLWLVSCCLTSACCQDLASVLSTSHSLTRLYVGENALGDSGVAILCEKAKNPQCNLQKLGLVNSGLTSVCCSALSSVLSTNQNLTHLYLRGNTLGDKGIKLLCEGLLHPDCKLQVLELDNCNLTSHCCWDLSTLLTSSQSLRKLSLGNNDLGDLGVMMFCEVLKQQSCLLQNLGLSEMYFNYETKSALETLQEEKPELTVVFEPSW
Chain of DNA dC->dU-editing enzyme APOBEC-3A (P31941 whole entry): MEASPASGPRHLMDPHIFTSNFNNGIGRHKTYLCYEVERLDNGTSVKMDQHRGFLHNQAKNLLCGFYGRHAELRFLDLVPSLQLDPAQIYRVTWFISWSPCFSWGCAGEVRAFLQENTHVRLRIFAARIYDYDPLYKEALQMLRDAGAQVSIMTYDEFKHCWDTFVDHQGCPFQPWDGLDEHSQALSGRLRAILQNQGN
Chain of DNA dC->dU-editing enzyme APOBEC-3G (Q9HC16 whole entry): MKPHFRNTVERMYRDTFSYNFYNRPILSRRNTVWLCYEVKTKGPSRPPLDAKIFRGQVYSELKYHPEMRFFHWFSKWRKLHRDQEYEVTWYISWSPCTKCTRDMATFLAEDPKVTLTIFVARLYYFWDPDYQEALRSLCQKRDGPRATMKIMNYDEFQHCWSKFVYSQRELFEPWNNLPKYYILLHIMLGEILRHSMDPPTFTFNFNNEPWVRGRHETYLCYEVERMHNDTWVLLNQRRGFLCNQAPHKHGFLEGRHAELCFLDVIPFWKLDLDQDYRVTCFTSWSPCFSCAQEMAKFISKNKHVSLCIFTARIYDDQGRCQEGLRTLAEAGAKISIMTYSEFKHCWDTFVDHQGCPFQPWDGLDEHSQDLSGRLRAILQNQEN
Chain of Cytochrome P450 2C9 (P11712 whole entry): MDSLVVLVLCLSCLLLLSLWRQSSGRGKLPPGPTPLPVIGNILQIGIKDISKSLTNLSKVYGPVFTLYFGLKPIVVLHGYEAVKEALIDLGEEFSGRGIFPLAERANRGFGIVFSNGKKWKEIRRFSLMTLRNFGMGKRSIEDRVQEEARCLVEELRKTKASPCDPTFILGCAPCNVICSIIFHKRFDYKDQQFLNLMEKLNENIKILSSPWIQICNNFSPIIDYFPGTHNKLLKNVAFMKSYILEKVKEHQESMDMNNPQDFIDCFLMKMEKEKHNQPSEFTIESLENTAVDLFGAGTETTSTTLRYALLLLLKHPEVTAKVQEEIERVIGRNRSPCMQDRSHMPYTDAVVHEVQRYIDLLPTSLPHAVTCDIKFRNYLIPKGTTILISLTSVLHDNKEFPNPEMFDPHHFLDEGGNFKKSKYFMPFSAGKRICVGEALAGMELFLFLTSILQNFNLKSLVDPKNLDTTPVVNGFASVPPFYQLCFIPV
Chain of Nonstructural protein 1 (Q194T2 whole entry): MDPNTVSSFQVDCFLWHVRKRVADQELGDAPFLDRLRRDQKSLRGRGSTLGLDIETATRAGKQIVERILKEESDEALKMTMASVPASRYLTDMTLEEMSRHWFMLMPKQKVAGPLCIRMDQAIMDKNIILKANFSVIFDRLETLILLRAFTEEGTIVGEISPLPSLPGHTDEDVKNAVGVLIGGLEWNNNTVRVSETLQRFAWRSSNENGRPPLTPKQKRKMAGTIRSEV
Chain of Neurotensin receptor type 1 (P30989 whole entry): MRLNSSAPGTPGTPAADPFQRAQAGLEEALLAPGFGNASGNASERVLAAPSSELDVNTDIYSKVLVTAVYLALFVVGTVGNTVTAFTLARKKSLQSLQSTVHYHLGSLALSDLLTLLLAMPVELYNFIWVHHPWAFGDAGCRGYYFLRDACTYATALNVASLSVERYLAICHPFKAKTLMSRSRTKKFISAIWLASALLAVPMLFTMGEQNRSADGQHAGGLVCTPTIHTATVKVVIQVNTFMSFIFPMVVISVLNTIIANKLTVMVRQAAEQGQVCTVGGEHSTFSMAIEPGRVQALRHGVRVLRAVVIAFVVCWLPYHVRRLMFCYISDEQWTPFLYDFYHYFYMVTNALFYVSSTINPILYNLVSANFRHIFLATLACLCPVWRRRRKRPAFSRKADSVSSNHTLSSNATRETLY
Chain of Cytochrome P450 2C19 (P33261 whole entry): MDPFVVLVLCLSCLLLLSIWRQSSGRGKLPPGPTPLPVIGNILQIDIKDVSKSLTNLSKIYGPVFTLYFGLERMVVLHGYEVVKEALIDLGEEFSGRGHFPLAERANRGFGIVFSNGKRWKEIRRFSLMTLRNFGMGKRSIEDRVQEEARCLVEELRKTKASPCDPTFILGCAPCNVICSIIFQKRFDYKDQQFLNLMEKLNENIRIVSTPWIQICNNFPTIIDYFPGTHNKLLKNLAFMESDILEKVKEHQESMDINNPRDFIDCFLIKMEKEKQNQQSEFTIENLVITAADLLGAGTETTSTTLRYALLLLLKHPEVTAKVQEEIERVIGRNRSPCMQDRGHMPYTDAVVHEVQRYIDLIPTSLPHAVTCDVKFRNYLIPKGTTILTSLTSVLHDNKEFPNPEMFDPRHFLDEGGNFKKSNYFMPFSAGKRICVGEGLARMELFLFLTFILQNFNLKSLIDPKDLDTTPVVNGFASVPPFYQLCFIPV

Cc1cccc(N2C(=O)NC(=O)/C(=C\c3cnn(-c4ccccc4)c3)C2=O)c1
EC50 [1]: 13 µM (active) | AC50 [2]: 39.8 µM (inconclusive) | AC50 [3]: 25.1 µM (inconclusive) | AC50 [4]: 39.8 µM (inconclusive)

CCOc1ccc(S(=O)(=O)NC(C)(C)C)cc1-c1nc(O)c2c(n1)c(C(C)(C)C)nn2C
EC50 [5]: 1.26 µM (active) | EC50 [6]: 0.781 µM (active) | EC50 [7]: 8.45 µM (active) | EC50 [8]: > 29.9 µM (not active)

C=CCNC1=N[C@@H](c2ccccc2)C(C(=O)OC)=C(C)N1CCOC
IC50 [9]: 4.03 µM (active) | IC50 [10]: 6.15 µM (active)

CN(C)CC1CCCCC1OC(=O)Cc1ccc(Cl)c([N+](=O)[O-])c1 (stereo not given)
IC50 [9]: 2.81 µM (active) | IC50 [10]: 4.69 µM (active)

C1CCN(c2nc(N3CCCC3)nc(N3CCNCC3)n2)C1
EC50 [11]: > 112 µM (not active) | EC50 [12]: > 112 µM (not active) | EC50 [13]: 2.66 µM (active)

CNc1nc(N2CCc3ccccc32)ncc1F
EC50 [13]: 0.75 µM (active)

Cc1ccc(OCc2nc(-c3ccccn3)no2)c(Br)c1
EC50 [14]: < 0.2 µM (active) | EC50 [15]: > 50 µM (not active)

Cc1ccc(N=C(S)Nc2ncccc2C)c(C)c1
CC50 [16]: > 40 µM (active)

CCN(CC(=O)Nc1cccc(F)c1)Cc1nc(O)c2ccccc2n1
IC50 [17]: > 100 µM (inactive)

CN(C)CCNc1ccc(Cl)cc1[N+](=O)[O-]
EC50 [13]: 0.01 µM (active)

CCC1Nc2ncnc(N3CCN(c4ccccn4)CC3)c2N(Cc2ccc(Cl)cc2)C1=O (stereo not given)
IC50 [18]: 3.16 µM (active)

OCCCn1c(C2CCCN2c2nc(-c3ccc(Cl)cc3)cs2)nc2cc(Cl)c(Cl)cc21 (stereo not given)
CC50 [16]: > 40 µM (active)

Cc1ccc(C)c(NC(=O)C2CCN(C(=O)c3cccs3)CC2)c1
IC50 [19]: > 100 µM (inactive) | IC50 [20]: > 100 µM (inactive)

COc1cc([N+](=O)[O-])ccc1NC(=O)COC(=O)c1ccc(N2CCCC2=O)cc1
IC50 [19]: > 100 µM (inactive) | IC50 [20]: > 100 µM (inactive)

O=C(Nc1ccc(Br)cc1)C1CCCN1C(=O)Oc1ccccc1 (stereo not given)
IC50 [19]: > 100 µM (inactive) | IC50 [20]: > 100 µM (inactive)

COc1ccccc1/C=N\Nc1cc(C)nc(-n2nc(C)cc2C)n1
EC50 [21]: 7.45 µM (active) | EC50 [22]: > 150 µM (not active) | EC50 [23]: 16.1 µM (active) | CC50 [24]: 5.71 µM (active) | CC50 [25]: 18.3 µM (active) | CC50 [26]: 7.06 µM (active) | IC50 [27]: < 0.1 µM (active) | AC50 [28]: 2.92 µM (active)

C=CCc1c(C)nc(C)nc1N/N=C/c1ccccc1O
CC50 [29]: > 40 µM (active) | IC50 [18]: 45.5 µM (active) | IC50 [30]: 18.4 µM (active)

COc1ccc(C(=O)/C=C/Nc2cccc(O)c2)cc1
EC50 [14]: 0.25 µM (active) | EC50 [11]: 0.793 µM (active) | EC50 [12]: 5.26 µM (active) | EC50 [15]: > 50 µM (not active)

Cc1nc(N/C(N)=N/C(=O)NC2CCCCC2)nc2ccccc12
CC50 [24]: 16.9 µM (active) | CC50 [25]: 17.7 µM (active) | CC50 [26]: 13.3 µM (active) | EC50 [31]: 0.0667 µM (active) | IC50 [27]: 3.25 µM (active) | CC50 [32]: 19.2 µM (active)
